In patent US9387221B2, “SDF-1 binding nucleic acids and the use thereof in cancer treatment” (NOXXON Pharma AG, priority 2010, dated 2016):
{PEG40k} = 40 kDa polyethylene glycol

Experiments:
[1] = target: human SDF-1α (Homo sapiens, UniProt P48061); experiment: Surface plasmon resonance measurement (Biacore 2000); format: binding; conditions: Spiegelmer (L-RNA), 37° C.
Experimental: The Biacore 2000 instrument (Biacore AB, Uppsala, Sweden) was used to analyze binding of Spiegelmers to human SDF-1α. When coupling of human SDF-1α was to be achieved via amine groups, human SDF-1α was dialyzed against water for 1-2 h (Millipore VSWP mixed cellulose esters; pore size, […]) to remove interfering amines. CM4 sensor chips (Biacore AB, Uppsala, Sweden) were activated before protein coupling by a 35-μl injection of a 1:1 dilution of 0.4 M NHS and 0.1 M EDC at a flow of 5 μl/min. Human MCP-1 or human SDF-1α was then injected in concentrations of 0.1-1.5 μg/ml at a flow of 2 μl/min until the instrument's response was in the range of 1000-2000 RU (relative units). Unreacted NHS esters were deactivated by injection of 35 μl ethanolamine hydrochloride solution (pH 8.5) at a flow of 5 μl/min. The sensor chip was primed twice with binding buffer and equilibrated at 10 μl/min for 1-2 hours until the baseline appeared stable. For all proteins, kinetic parameters and dissociation constants were evaluated by a series of Spiegelmer injections at concentrations of 1000, 500, 250, 125, 62.5, 31.25, and 0 nM in selection buffer (Tris-HCl, 20 mM; NaCl, 137 mM; KCl, 5 mM; CaCl2, 1 mM; MgCl2, 1 mM; Tween20, 0.1% [w/v]; pH 7.4). In all experiments, the analysis was performed at 37° C. using the Kinject command defining an association time of 180 and a dissociation time of 360 seconds at a flow of 10 μl/min. Data analysis and calculation of dissociation constants (KD) was done with the BIAevaluation 3.0 software (BIACORE AB, Uppsala, Sweden) using the Langmuir 1:1 stochiometric fitting algorithm.

[2] = system: Luc+/GFP+ MM.1S cells; experiment: Multiple myeloma animal model in SCID mice; format: in vivo
Description: The SDF-1/CXCR4 axis plays a major role in homing and trafficking of multiple myeloma (abbr. MM) cells to the bone marrow (abbr. BM). Therefore, de-adhesion of MM cells from the surrounding BM milieu through SDF-1 inhibition enhances MM sensitivity to therapeutic agents. Azab et al. published a protocol to test the CXCR4 inhibitor AMD3100 potency to disrupt the interaction of MM cells with the BM environment in vivo that affects localization MM cells [, which in turn enhances the sensitivity of MM cells to chemotherapy. […] Based on this protocol (Azab et al. 2009) the SDF-1 binding Spiegelmer NOX-A12 is tested for its potency to disupt the interaction of MM cells with the BM environment in vivo thereby enhancing the sensitivity of the MM cells to therapy.
For the MM animal model severe combined immunodeficient (SCID) mice are used whereby Luc+/GFP+ MM.1S cells (2×10^6/mouse) are injected into the tail vein of SCID mice. After 3 to 4 weeks, sufficient tumor progression is detected by bioluminescence imaging (for protocol see Azab et al. 2009). […]

[3] = system: RPMI-8226 MM cells; experiment: Chemosensitization coculture of RPMI-8226 MM cells with stromal MS-5 cells; format: cell-based; conditions: 100 nM NOX-A12, 1 μM F-ara-A, 40 hours
Experimental: In order to mimic the in vivo interaction of the BM microenvironment with leukemia cells, an in vitro coculture system with murine BM stromal MS-5 cells and the multiple myeloma (abbr. MM) cell line RPMI 8226 was established. Aim of the experiment was to show whether SDF-1 binding […] NOX-A12 sensitizes MM cells in coculture with stromal cells to effects of chemotherapeutic agents. Stromal MS-5 cells secreting SDF 1 were incubated with SDF-1 binding […] NOX-A12 or the non-functional revNOX-A12. The MM cell line RPMI-8226 was added to the confluent stromal cell layer. The cells were then incubated with the chemotherapeutic agent F ara A (Fludarabine) for 40 hours. Cell Viability viability was measured. The murine stromal cell line MS-5 (ACC 441) was purchased from the DSMZ, the Multiple Myeloma cell line RPMI8226 (CCL-155) was purchased from the ATCC. The Multiple Myeloma cell line RPMI8226 was maintained in RPMI medium 1640 GlutaMAX (Invitrogen) supplemented with 10% FBS (Biochrom) and penicillin-streptomycin, the MS-5 cells were cultured in MEM alpha GlutaMAX (Invitrogen) with 10% FBS and penicillin-streptomycin. […] Cell viability and cell number were determined by Flow Cytometry using the Guava EasyCyte 6HT/2L (Millipore).

Chain of human SDF-1α (P48061 22-89): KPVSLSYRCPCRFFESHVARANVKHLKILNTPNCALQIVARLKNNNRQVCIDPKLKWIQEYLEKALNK

For “5′-40 kDa-PEG-GCGUGGUGUGAUCUAGAUGUAUUGGCUGAUCCUAGUCAGGUACGC (5' {PEG40k}, sugars by position and backbone not given here) [NOX-A12]”, the Kd [1] was 0.2 nM, the “tumor growth (in vivo bioluminescence)” value ([2]; NOX-A12 20 mg/kg s.c. every other day together with bortezomib 0.5 mg/kg i.p. twice a week) was “reduction of tumor growth” and the “MM cell mobilization (ex vivo flow cytometry)” value ([2]; SCID mice, 20 mg/kg NOX-A12 subcutaneous every other day) was “MM cell mobilization from bone marrow to the blood”. The “cell viability of RPMI-8226 cells cocultured with stromal MS-5 cells” value [3] was “only slightly affected”.
